Reference: US20230339890A1, “AMINO ALCOHOL COMPOUNDS AND USES THEREOF” (Kineta, Inc., priority 2020, published 2023)

Biological target: Recombinant human CYP51A1 (lanosterol-14a-demethylase) (Homo sapiens (Human), UniProt Q16850)
Test: Inhibition of CYP51A1, fluorescent substrate BOMCC
Format: biochemical
Conditions: recombinant human CYP51A1 coexpressed with CYP reductase in bacterial membranes, 8-point concentration-response, read-out: CYP51 IC50
Excerpt: Method: Recombinant human CYP51A1 (lanosterol-14a-demethylase) enzyme was coexpressed with CYP reductase in bacterial membranes and the fluorescent substrate BOMCC (a nonnatural substrate that causes increases in fluorescence upon CYP51A1-dependent demethylation) was used to obtain 8-point dose concentration-response curves for each compound.

Chain of Recombinant human CYP51A1 (lanosterol-14a-demethylase) (Q16850 whole entry): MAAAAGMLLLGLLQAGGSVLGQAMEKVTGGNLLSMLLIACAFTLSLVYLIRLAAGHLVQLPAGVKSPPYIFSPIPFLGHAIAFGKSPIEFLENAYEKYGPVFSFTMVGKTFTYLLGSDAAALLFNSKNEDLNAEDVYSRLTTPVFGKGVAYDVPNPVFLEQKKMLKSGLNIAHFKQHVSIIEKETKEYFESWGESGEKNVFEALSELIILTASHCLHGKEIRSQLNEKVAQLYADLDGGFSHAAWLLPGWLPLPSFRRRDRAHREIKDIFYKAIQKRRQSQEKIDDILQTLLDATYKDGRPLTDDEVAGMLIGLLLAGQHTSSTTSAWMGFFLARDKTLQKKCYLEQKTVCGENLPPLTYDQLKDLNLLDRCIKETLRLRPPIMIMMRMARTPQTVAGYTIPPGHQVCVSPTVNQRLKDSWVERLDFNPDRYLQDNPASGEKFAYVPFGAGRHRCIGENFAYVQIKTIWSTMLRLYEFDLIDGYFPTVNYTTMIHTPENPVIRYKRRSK

Row | IC50 | Structure (SMILES)
1 | 100 to 1000 nM | CCCN(CC(O)c1cccnn1)C(=O)Cc1ccc(Cl)c(Cl)c1 (single isomer, unassigned) [compound 35, 2-(3,4-dichlorophenyl)-N-[2-hydroxy-2-pyridazin-3-yl-ethyl]-N-propyl-acetamide]
2 | > 1000 nM | CCCN(CC(O)c1cccnn1)C(=O)Cc1ccc(Cl)c(Cl)c1 (single isomer, unassigned) [compound 36, 2-(3,4-dichlorophenyl)-N-[2-hydroxy-2-pyridazin-3-yl-ethyl]-N-propyl-acetamide]
3 | > 1000 nM | CCCN(CC(O)c1cnccn1)C(=O)C1Cc2cc(Cl)c(Cl)cc2C1 (single isomer, unassigned) [compound 41, 5,6-dichloro-N-(2-hydroxy-2-pyrazin-2-yl-ethyl)-N-propyl-indane-2-carboxamide]
4 | ≤ 100 nM | CCCN(CC(O)c1cnccn1)C(=O)C1Cc2cc(Cl)c(Cl)cc2C1 (single isomer, unassigned) [compound 42, 5,6-dichloro-N-(2-hydroxy-2-pyrazin-2-yl-ethyl)-N-propyl-indane-2-carboxamide]
5 | 100 to 1000 nM | O=C(Cc1ccc(C(F)(F)F)nc1)N(CC(O)c1cccnn1)C1CCC1 (single isomer, unassigned) [compound 61, N-cyclobutyl-N-(2-hydroxy-2-pyridazin-3-yl-ethyl)-2-[6-(trifluoromethyl)-3-pyridyl]acetamide]
6 | > 1000 nM | O=C(Cc1ccc(C(F)(F)F)nc1)N(CC(O)c1cccnn1)C1CCC1 (single isomer, unassigned) [compound 62, N-cyclobutyl-N-(2-hydroxy-2-pyridazin-3-yl-ethyl)-2-[6-(trifluoromethyl)-3-pyridyl]acetamide]
7 | > 1000 nM | CCCN(CC(O)c1cccnn1)C(=O)Cc1ccc(C(F)(F)F)nc1 (single isomer, unassigned) [compound 68, N-[2-hydroxy-2-pyridazin-3-yl-ethyl]-N-propyl-2-[6-(trifluoromethyl)-3-pyridyl]acetamide]
8 | ≤ 100 nM | CCCN(CC(O)c1cccnn1)C(=O)Cc1ccc(C(F)(F)F)nc1 (single isomer, unassigned) [compound 69, N-[2-hydroxy-2-pyridazin-3-yl-ethyl]-N-propyl-2-[6-(trifluoromethyl)-3-pyridyl]acetamide]
9 | ≤ 100 nM | Cc1ccncc1C(O)CN(CC1COC1)C(=O)Cc1ccc(C(F)(F)F)nc1 (single isomer, unassigned) [compound 88, N-[2-hydroxy-2-(4-methyl-3-pyridyl)ethyl] -N-(oxetan-3-ylmethyl)-2-[6-(trifluoromethyl)-3-pyridyl]acetamide]
10 | ≤ 100 nM | CCCN(CC(O)c1cccnc1)C(=O)Cc1ccc(Cl)c(Cl)c1 (stereo not shown) [compound 1, 2-(3,4-dichlorophenyl)-N-[2-hydroxy-2-(3-pyridyl)ethyl]-N-propyl-acetamide]
11 | ≤ 100 nM | CCCN(CC(O)c1cccnc1)C(=O)Cc1ccc2ccccc2c1 (stereo not shown) [compound 2, N-[2-hydroxy-2-(3-pyridyl)ethyl]-2-(2-naphthyl)-N-propyl-acetamide]
12 | 100 to 1000 nM | CCC(=O)N(CCc1ccc2ccccc2c1)CC(O)c1cccnc1 (stereo not shown) [compound 3]
13 | 100 to 1000 nM | CCC(=O)N(CCc1ccc(Cl)c(Cl)c1)CC(O)c1cccnc1 (stereo not shown) [compound 4]
14 | > 1000 nM | CCCN(CC(O)c1cccnc1)C(=O)Cc1ccc(OC)c(OC)c1 (stereo not shown) [compound 5, 2-(3,4-dimethoxyphenyl)-N-[2-hydroxy-2-(3-pyridyl)ethyl]-N-propyl-acetamide]
15 | ≤ 100 nM | CCCN(C[C@H](O)c1cccnc1)C(=O)Cc1ccc(Cl)c(Cl)c1 [compound 6, 2-(3,4-dichlorophenyl)-N-[(2R)-2-hydroxy-2-(3-pyridyl)ethyl]-N-propyl-acetamide]
16 | ≤ 100 nM | CCCN(C[C@@H](O)c1cccnc1)C(=O)Cc1ccc2ccccc2c1 [compound 7, N-[(2S)-2-hydroxy-2-(3-pyridyl)ethyl]-2-(2-naphthyl)-N-propyl-acetamide]
17 | ≤ 100 nM | CCCN(C[C@@H](O)c1cccnc1)C(=O)Cc1ccc(Cl)c(Cl)c1 [compound 8, 2-(3,4-dichlorophenyl)-N-[(2S)-2-hydroxy-2-(3-pyridyl)ethyl]-N-propyl-acetamide]
18 | 100 to 1000 nM | CC1(N(CC(O)c2cccnc2)C(=O)Cc2ccc(Cl)c(Cl)c2)CC1 (stereo not shown) [compound 9, 2-(3,4-dichlorophenyl)-N-[2-hydroxy-2-(3-pyridyl)ethyl]-N-(1-methylcyclopropyl)a cetamide]
19 | > 1000 nM | CCCN(CC(O)c1cccnc1)S(=O)(=O)Cc1ccc(Cl)c(Cl)c1 (stereo not shown) [compound 10, 1-(3,4-dichlorophenyl)-N-[2-hydroxy-2-(3-pyridyl)ethyl]-N-propyl-methanesulfonamide]
20 | ≤ 100 nM | CCCN(C[C@@H](O)c1cccnc1)C(=O)C1Cc2cc(Cl)c(Cl)cc2C1 [compound 11]
21 | 100 to 1000 nM | CCCN(C[C@@H](O)c1cccnc1)C(=O)Cc1ccc(OC)c(Cl)c1 [compound 12, 2-(3-chloro-4-methoxy-phenyl)-N-[(2S)-2-hydroxy-2-(3-pyridyl)ethyl]-N-propyl-acetamide]
22 | > 1000 nM | CCCN(CC(O)c1cncnc1)C(=O)Cc1ccc(Cl)c(Cl)c1 (stereo not shown) [compound 13, 2-(3,4-dichlorophenyl)-N-(2-hydroxy-2-pyrimidin-5-yl-ethyl)-N-propyl-acetamide]
23 | > 1000 nM | CCCN(C[C@@H](O)c1cccnc1)C(=O)Cc1ccc(Cl)cn1 [compound 14, 2-(5-chloro-2-pyridyl)-N-[(2S)-2-hydroxy-2-(3-pyridyl)ethyl]-N-propyl-acetamide]
24 | > 1000 nM | CCCN(C[C@@H](O)c1cccnc1)C(=O)Cc1ccc(C)nc1 [compound 15, N-[(2S)-2-hydroxy-2-(3-pyridyl)ethyl]-2-(6-methyl-3-pyridyl)-N-propyl-acetamide]
25 | ≤ 100 nM | CCCN(C[C@@H](O)c1cccnc1)C(=O)Cc1ccc(C)c(Cl)c1 [compound 16, 2-(3-chloro-4-methyl-phenyl)-N-[(2S)-2-hydroxy-2-(3-pyridyl)ethyl]-N-propyl-acetamide]
26 | ≤ 100 nM | CCCN(C[C@@H](O)c1cccnc1)C(=O)Cc1ccc(C(F)(F)F)nc1 [compound 17, N-[(2S)-2-hydroxy-2-(3-pyridyl)ethyl]-N-propyl-2-[6-(trifluoromethyl)-3-pyridyl]acetamide]
27 | ≤ 100 nM | CC(C)N(C[C@@H](O)c1cccnc1)C(=O)Cc1ccc(Cl)c(Cl)c1 [compound 18, 2-(3,4-dichlorophenyl) -N-[(2S)-2-hydroxy-2-(3-pyridyl)ethyl]-N-isopropyl-acetamide]
28 | > 1000 nM | CCCN(CC(O)c1ccnnc1)C(=O)Cc1ccc(Cl)c(Cl)c1 (stereo not shown) [compound 19]
29 | 100 to 1000 nM | CCN(C[C@@H](O)c1cccnc1)C(=O)Cc1ccc(Cl)c(Cl)c1 [compound 20, 2-(3,4-dichlorophenyl) -N-ethyl-N-[(2S)-2-hydroxy-2-(3-pyridyl)ethyl]ac etamide]

Row | Structure (SMILES) | IC50
30 | CCCN(CC(O)c1cccnn1)C(=O)Cc1ccc(C#N)c(Cl)c1 (single isomer, unassigned) [compound 53, 2-(3-chloro-4-cyanophenyl)-N-(2-hydroxy-2-pyridazin-3-yl-ethyl)-N-propyl-acetamide] | 100 to 1000 nM
31 | CCCN(CC(O)c1cccnn1)C(=O)Cc1ccc(C#N)c(Cl)c1 (single isomer, unassigned) [compound 54, 2-(3-chloro-4-cyanophenyl)-N-(2-hydroxy-2-pyridazin-3-yl-ethyl)-N-propyl-acetamide] | > 1000 nM
